In patent US10961215B2, “N-aryl and N-heteroaryl piperidine derivatives as liver X receptor beta agonists, compositions, and their use” (Merck Sharp & Dohme Corp., priority 2016, dated 2021):

Experiments:
[1] = target: T1, GST tagged LXRbeta LBD (ligand binding domain) (Homo sapiens, UniProt P55055); assay: LanthaScreen TR-FRET Liver X Receptor Coactivator Assay, LXR beta-LBD (co-activator recruitment; IP and % Emax relative to T0901317); assay type: biochemical; settings: for EC50: Inflection Point of co-activator recruitment, LXR beta-LBD, TR-FRET; for Emax: read-out: LXR beta actiivty at max dose (%)
T1 construct: purchased Invitrogen pv4658.pps
T1 sequence (P55055 222-460 limits assumed): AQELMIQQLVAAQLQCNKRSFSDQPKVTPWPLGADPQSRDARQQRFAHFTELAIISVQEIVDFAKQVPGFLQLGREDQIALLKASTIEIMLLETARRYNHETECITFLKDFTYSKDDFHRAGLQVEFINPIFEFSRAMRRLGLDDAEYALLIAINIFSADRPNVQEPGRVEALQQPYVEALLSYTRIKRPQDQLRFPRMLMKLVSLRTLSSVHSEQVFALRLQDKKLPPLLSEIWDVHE
Description: (§1) Potency (Inflection Point, IP) and efficacy (Emax) are evaluated via compound-induced co-activator recruitment to glutathione-S-transferase (GST) tagged LXRbeta and LXRalpha LBD (ligand binding domain) proteins in relation to reference dual agonist compound T0901317 (N-(2,2,2-Trifluoroethyl)-N-[4-[2,2,2-trifluoro-1-hydroxy-1-(trifluoromethyl)ethyl]phenyl]benzenesulfonamide) using the LanthaScreen™ TR-FRET Liver X Receptor Coactivator Assays according to manufacturer's instructions (Invitrogen catalog number pv4658.pps and pv4655). While running the LanthaScreen™ TR-FRET Liver X Receptor Coactivator Assay, LXR alpha-LBD or LXR beta-LBD was added to ligand test compounds followed by addition of a mixture of a fluorescein-labelled coactivator peptide and terbium-conjugated anti-GST antibody. After an incubation period at room temperature, TR-FRET (time-resolved fluorescence resonance energy transfer) was measured using a filter-based instrument capable of TR-FRET, e.g. PerkinElmer Envision.

[2] = target: T2, GST tagged LXRalpha LBD (ligand binding domain) (Homo sapiens, UniProt Q13133); assay: LanthaScreen TR-FRET Liver X Receptor Coactivator Assay, LXR alpha-LBD (co-activator recruitment; IP and % Emax relative to T0901317); assay type: biochemical; settings: for LXR alpha IP (nM) / EC50: Inflection Point of co-activator recruitment, LXR alpha-LBD, TR-FRET; for Emax: read-out: LXR alpha actiivty at max dose (%)
T2 construct: purchased Invitrogen pv4655
T2 sequence (Q13133 209-447 limits assumed): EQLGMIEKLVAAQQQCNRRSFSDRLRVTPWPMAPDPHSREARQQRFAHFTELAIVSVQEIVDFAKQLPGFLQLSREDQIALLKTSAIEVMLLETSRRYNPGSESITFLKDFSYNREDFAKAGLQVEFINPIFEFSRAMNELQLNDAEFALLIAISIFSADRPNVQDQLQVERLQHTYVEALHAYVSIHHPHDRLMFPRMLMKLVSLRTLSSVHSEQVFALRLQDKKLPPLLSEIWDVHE
Description: as §1

[3] = efficacy at max dose in relation to reference T0901317, LXR beta-LBD
[4] = efficacy at max dose in relation to reference T0901317, LXR alpha-LBD

Row | Compound | EC50 [1] [nM] | Emax [1, 3] [%] | LXR alpha IP (nM) [2] | Emax [2, 4] [%] | EC50 [2] [nM] | LXR beta actiivty at max dose (%) [1, 3] [%] | LXR alpha actiivty at max dose (%) [2, 4] [%]
1 | CN(C)C(=O)c1ccc(N2CCC(CCCN(C)C(=O)[C@](N)(c3ccccc3)C(F)(F)F)CC2)nc1Cl [Example 1-29, (R)-6-(4-(3-(2-amino-3,3,3-trifluoro-N-methyl-2-phenylpropanamido)propyl)piperidin-1-yl)-2-chloro-N,N-dimethylnicotinamide] | 396 | 51 | No IP | 8 |  |  | 
2 | CN(C)C(=O)c1ccc(N2CCC(CCCN(C)C(=O)[C@@](O)(c3cc(F)cc(Cl)c3)C(F)(F)F)CC2)nc1Cl [Example 1-11, (S)-2-chloro-6-(4-(3-(2-(3-chloro-5-fluorophenyl)-3,3,3-trifluoro-2-hydroxy-N-methylpropanamido)propyl)piperidin-1-yl)-N,N-dimethylnicotinamide] | 453 | 59 | No IP | 0 |  |  | 
3 | CN(C)C(=O)c1ccc(N2CCC(CCCN(C)C(=O)[C@](O)(c3ccccc3)C(F)(F)F)CC2)nc1Cl [Example 1-26, (R)-2-chloro-N,N-dimethyl-6-(4-(3-(3,3,3-trifluoro-2-hydroxy-N-methyl-2-phenylpropanamido)propyl)piperidin-1-yl)nicotinamide] |  |  | No IP |  |  | 51 | 6
4 | CN(C)C(=O)c1ccc(N2CCC(CCCN(C)C(=O)[C@](O)(c3cc(Cl)cc(Cl)c3)C(F)(F)F)CC2)nc1Cl [Example 1-37, (R)-2-chloro-6-(4-(3-(2-(3,5-dichlorophenyl)-3,3,3-trifluoro-2-hydroxy-N-methylpropanamido)propyl)piperidin-1-yl)-N,N-dimethylnicotinamide] | 35 | 44 | No IP | 0 |  |  | 
5 | CN(C)C(=O)c1ccc(N2CCC(CCCN(C)C(=O)[C@]3(c4cccc(Cl)c4)CCCO3)CC2)nc1Cl [Example 1-62, (R)-2-chloro-6-(4-(3-(2-(3-chlorophenyl)-N-methyltetrahydrofuran-2-carboxamido)propyl)piperidin-1-yl)-N,N-dimethylnicotinamide] | 694 | 28 | No IP | 0 |  |  | 
6 | CN(C)C(=O)c1ccc(N2CCC(CCCN(C)C(=O)[C@@]3(c4ccccc4)CCOC3)CC2)nc1Cl [Example 1-55, (R)-2-chloro-N,N-dimethyl-6-(4-(3-(N-methyl-3-phenyltetrahydrofuran-3-carboxamido)propyl)piperidin-1-yl)nicotinamide] | 856 | 48 | No IP | 16 |  |  | 
7 | CN(C)C(=O)c1ccc(N2CCC(CCCN(C)C(=O)[C@@]3(c4ccccc4)CCCO3)CC2)nc1Cl [Example 1-38, (S)-2-chloro-N,N-dimethyl-6-(4-(3-(N-methyl-2-phenyltetrahydrofuran-2-carboxamido)propyl)piperidin-1-yl)nicotinamide] | 156 | 78 |  | 18 | 1920 |  | 
8 | CN(C)C(=O)c1ccc(N2CCC(CCCN(C)C(=O)[C@]3(c4ccccc4F)CCCO3)CC2)nc1Cl [Example 1-6, (R)-2-chloro-6-(4-(3-(2-(2-fluorophenyl)-N-methyl-tetrahydrofuran-2-carboxamido)propyl)piperidin-1-yl)-N,N-dimethylnicotinamide] | 64 | 80 |  | 27 | 1460 |  | 
9 | COc1cccc([C@@]2(C(=O)N(C)CCCC3CCN(c4ccc(C(=O)N(C)C)c(Cl)n4)CC3)CCCO2)c1 [Example 1-47, (R)-2-chloro-6-(4-(3-(2-(3-methoxyphenyl)-N-methyltetrahydrofuran-2-carboxamido)propyl)piperidin-1-yl)-N,N-dimethylnicotinamide] | 100 | 56 | No IP | 11 |  |  | 

The next lines start with the values.

Row | EC50 [1] [nM] | Emax [1, 3] [%] | LXR alpha IP (nM) [2] | Emax [2, 4] [%] | EC50 [2] [nM] | LXR beta actiivty at max dose (%) [1, 3] [%] | LXR alpha actiivty at max dose (%) [2, 4] [%] | Compound
10 | 373 | 49 | No IP | 6 |  |  |  | COc1cccc([C@@](O)(C(=O)N(C)CC(F)CC2CCN(c3ccc(C(=O)N(C)C)c(Cl)n3)CC2)C(F)(F)F)c1 (stereo partly drawn) [Example 3-3, 2-chloro-6-(4-(2-fluoro-3-((R)-3,3,3-trifluoro-2-hydroxy-2-(3-methoxyphenyl)-N-methylpropanamido)propyl)piperidin-1-yl)-N,N-dimethylnicotinamide]
11 | 28 | 63 |  | 23 | 705 |  |  | COc1cccc([C@@](O)(C(=O)N(C)CCCC2CCN(c3ccc(C(=O)N(C)CCO)c(Cl)n3)CC2)C(F)(F)F)c1 [Example 2-5, (R)-2-chloro-N-(2-hydroxyethyl)-N-methyl-6-(4-(3-(3,3,3-trifluoro-2-hydroxy-2-(3-methoxyphenyl)-N-methylpropanamido)propyl)piperidin-1-yl)nicotinamide]
12 | 961 | 38 | No IP | 7 |  |  |  | COc1cccc([C@@](O)(C(=O)NC[C@@H](F)CC2CCN(c3ccc(C(=O)N(C)C)c(Cl)n3)CC2)C(F)(F)F)c1 [Example 3-6]
13 | 11 | 68 |  | 55 | 381 |  |  | CN(C)C(=O)c1ccc(N2CCC3(CC2)C[C@@H]3CCN(C)C(=O)[C@](O)(c2ccccc2)C(F)(F)F)cc1Cl [Example 7-5, 2-chloro-N,N-dimethyl-4-((R)-1-(2-((R)-3,3,3-trifluoro-2-hydroxy-N-methyl-2-phenylpropanamido)ethyl)-6-azaspiro[2.5]octan-6-yl)benzamide]
14 | 11 | 47 |  | 40 | 690 |  |  | COc1cccc([C@@](O)(C(=O)N(C)CCCC2CCN(c3ccc(C(=O)N4CC[C@H](CO)C4)c(Cl)n3)CC2)C(F)(F)F)c1 [Example 2-8, (R)-N-(3-(1-(6-chloro-5-((S)-3-(hydroxymethyl)pyrrolidine-1-carbonyl)pyridin-2-yl)piperidin-4-yl)propyl)-3,3,3-trifluoro-2-hydroxy-2-(3-methoxyphenyl)-N-methylpropanamide]
15 | 610 | 95 |  | 14 | 3510 |  |  | CN(C)C(=O)c1ccc(N2CCC(CCCNC(=O)C(O)(c3ccccc3)C(F)(F)F)CC2)cc1Cl (stereo not drawn) [Example 5-1, 2-chloro-N,N-dimethyl-4-(4-(3-(3,3,3-trifluoro-2-hydroxy-2-phenylpropanamido)propyl)piperidin-1-yl)benzamide]
16 | 76 | 58 |  | 27 | 688 |  |  | COc1cccc([C@@](O)(C(=O)N(C)CCC2CC23CCN(c2ccc(C(=O)NC(C)C)c(Cl)n2)CC3)C(F)(F)F)c1 (stereo in doubt) [Example 7-19, 2-chloro-N-isopropyl-6-((R)-1-(2-((R)-3,3,3-trifluoro-2-hydroxy-2-(3-methoxyphenyl)-N-methylpropanamido)ethyl)-6-azaspiro[2.5]octan-6-yl)nicotinamide]
17 | 105 | 104 |  | 28 | 5140 |  |  | CN(C)C(=O)c1ccc(N2CCC(CCCNC(=O)[C@](O)(c3ccccc3)C(F)(F)F)CC2)nc1Cl [Example 5-8, (R)-2-chloro-N,N-dimethyl-6-(4-(3-(3,3,3-trifluoro-2-hydroxy-2-phenylpropanamido)propyl)piperidin-1-yl) nicotinamide]
18 | 272 | 49 | No IP | 0 |  |  |  | COc1cccc([C@@](O)(C(=O)N(C)CCCC2CCN(c3ccc(C(=O)N4CCC4)c(Cl)n3)CC2)C(F)(F)F)c1 [Example 2-15, (R)-N-(3-(1-(5-(azetidine-1-carbonyl)-6-chloropyridin-2-yl)piperidin-4-yl)propyl)-3,3,3-trifluoro-2-hydroxy-2-(3-methoxyphenyl)-N-methylpropanamide]
19 | 25 | 70 | No IP | 16 |  |  |  | COc1cccc([C@@](O)(C(=O)N(C)C[C@H](C)CC2CCN(c3ccc(C(=O)N(C)C)c(Cl)n3)CC2)C(F)(F)F)c1 (single isomer, unassigned) [Example 3-1]
